Test results as given in patent US7208517B1, “Endothelin antagonists” (Abbott Labortories, priority 1994, dated 2007).

Molecular target: T1, ETA Receptor (Rattus norvegicus, UniProt P26684)
T1 construct: endogenous in cells; host or cells: MMQ rat pituitary cells (membranes)
T1 sequence (P26684 21-426): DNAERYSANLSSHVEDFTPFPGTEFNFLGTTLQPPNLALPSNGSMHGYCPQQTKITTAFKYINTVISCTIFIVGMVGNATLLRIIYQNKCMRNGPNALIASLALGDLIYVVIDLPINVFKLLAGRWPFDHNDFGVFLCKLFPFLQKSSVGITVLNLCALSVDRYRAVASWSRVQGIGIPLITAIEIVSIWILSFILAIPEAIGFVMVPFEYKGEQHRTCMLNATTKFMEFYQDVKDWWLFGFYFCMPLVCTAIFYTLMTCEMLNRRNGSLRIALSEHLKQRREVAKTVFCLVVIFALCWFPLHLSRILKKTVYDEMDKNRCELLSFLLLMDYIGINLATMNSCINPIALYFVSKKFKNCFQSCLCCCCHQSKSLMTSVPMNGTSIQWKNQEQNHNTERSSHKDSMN
Test: [125I]ET-1 binding to membranes from MMQ cells (ETA receptor binding assay, Table 4)
Conditions: test compound at 1 μM; 0.1 nM [125I]ET-1, MMQ cell membranes, 4 hours at 25° C.
Experimental: Preparation of Membranes from MMQ Cells:
MMQ [MacLeod/MacQueen/Login cell line (prolactin secreting rat pituitary cells)] cells from 150 mL culture flasks were collected by centrifugation (1000×g for 10 min) and then homogenized in 25 mL of 10 mM Hepes (pH 7.4) containing 0.25 M sucrose and protease inhibitors [3 mM EDTA, 0.1 mM PMSF, and 5 μg/mL Pepstatin A] by a micro ultrasonic cell disrupter (Kontes). The mixture was centrifuged at 1000×g for 10 min. The supernatant was collected and centrifuged at 60,000×g for 60 min. The precipitate was resuspended in 20 mM Tris, pH 7.4 containing the above protease inhibitors and centrifuged again. The final pellet was resuspended in 20 mM Tris, pH 7.4 containing protease inhibitors and stored at −80° C. until used. Protein content was determined by the Bio-Rad dye-binding protein assay.
Binding assays were performed in 96-well microtiter plates pretreated with 0.1% BSA. […] After incubation, unbound ligands were separated from bound ligands by a vacuum filtration method using glass-fiber filter strips in PHD cell harvesters (Cambridge Technology, Inc., MA), followed by washing the filter strips with saline (1 mL) for three times. Nonspecific binding was determined in the presence of 1 μM ET-1.

% Inhibition of ETA at 1 μM [%]	SMILES
90.0	CCCN(CCN1CC(c2ccc3c(c2)OCO3)C(C(=O)O)C1c1ccc(OC)cc1)S(=O)(=O)c1ccc(Cl)cc1 (stereo not drawn) [Example 132, trans,trans-1-(2-(N-Propyl-N-(4-chlorobenzenesulfonyl)amino)ethyl)-2-(4-methoxyphenyl)-4-(1,3-benzodioxol-5-yl)pyrrolidine-3-carboxylic acid]
88.6	CCCN(CCN1CC(c2ccc3c(c2)OCO3)C(C(=O)O)C1c1ccc(OC)cc1)S(=O)(=O)Cc1ccccc1 (stereo not drawn) [Example 133, trans,trans-1-(2-(N-Propyl-N-(benzylsulfonyl)amino)ethyl)-2-(4-methoxyphenyl)-4-(1,3-benzodioxol-5-yl)pyrrolidine-3-carboxylic acid]
92.2	CCCN(CCN1CC(c2ccc3c(c2)OCO3)C(C(=O)O)C1c1ccc(OC)cc1)S(=O)(=O)c1ccc(F)cc1 (stereo not drawn) [Example 134, trans,trans-1-(2-(N-Propyl-N-(4-fluorobenzenesulfonyl)amino)ethyl)-2-(4-methoxyphenyl)-4-(1,3-benzodioxol-5-yl)pyrrolidine-3-carboxylic acid]
77.7	CCCN(C)C(=O)CN1CC(c2cccc3occc23)C(C(=O)O)C1c1ccc(OC)cc1 (stereo not drawn) [Example 135B, trans,trans-1-(N-Methyl-N-propylaminocarbonylmethyl)-2-(4-methoxyphenyl)-4-(4-benzofuranyl)pyrrolidine-3-carboxylic acid]
79.4	CCCN(C)C(=O)CN1CC(c2ccc3ccoc3c2)C(C(=O)O)C1c1ccc(OC)cc1 (stereo not drawn) [Example 136, trans,trans-1-(N-Methyl-N-propylaminocarbonylmethyl)-2-(4-methoxyphenyl)-4-(6-benzofuranyl)pyrrolidine-3-carboxylic acid]
83.0	CCCCN(CCCC)C(=O)CN1CC(c2cccc3occc23)C(C(=O)O)C1c1ccc(OC)cc1 (stereo not drawn) [Example 138, trans,trans-1-(N,N-Di(n-butyl)aminocarbonylmethyl)-2-(4-methoxyphenyl)-4-(4-benzofuranyl)pyrrolidine-3-carboxylic acid]
98.6	CCCCN(CCCC)C(=O)CN1CC(c2cccc3occc23)C(C(=O)O)C1c1ccc(OC)cc1 (stereo not drawn) [Example 139, trans,trans-1-(N,N-Di(n-butyl)aminocarbonylmethyl)-2-(4-methoxyphenyl)-4-(4-benzofuranyl)pyrrolidine-3-carboxylic acid]
106.3	CCCCN(CCCC)C(=O)CN1CC(c2ccc3ccoc3c2)C(C(=O)O)C1c1ccc(OC)cc1 (stereo not drawn) [Example 140, trans,trans-1-(N,N-Di(n-butyl)aminocarbonylmethyl)-2-(4-methoxyphenyl)-4-(6-benzofuranyl)pyrrolidine-3-carboxylic acid]
92.8	CCCCN(CCCC)C(=O)CN1CC(c2ccc3c(c2)OCC3)C(C(=O)O)C1c1ccc(OC)cc1 (stereo not drawn) [Example 141, trans,trans-1-(N,N-Di(n-butyl)aminocarbonylmethyl)-2-(4-methoxyphenyl)-4-(6-benzo-2,3-dihydrofuranyl)pyrrolidine-3-carboxylic acid]
78.7	CCCN(C)C(=O)CN1CC(c2ccc3c(c2)CCC3)C(C(=O)O)C1c1ccc(OC)cc1 (stereo not drawn) [Example 142B, trans,trans-1-(N-Methyl-N-propylaminocarbonylmethyl)-2-(4-methoxyphenyl)-4-(5-indanyl)pyrrolidine-3-carboxylic acid]
20.6	CCCN(C)C(=O)CN1CC(c2ccc3cc[nH]c3c2)C(C(=O)O)C1c1ccc(OC)cc1 (stereo not drawn) [Example 143, trans,trans-1-(N-Methyl-N-propylaminocarbonylmethyl)-2-(4-methoxyphenyl)-4-(6-indolyl)pyrrolidine-3-carboxylic acid]
78.2	CCCN(C)C(=O)CN1CC(c2ccc(F)c(F)c2)C(C(=O)O)C1c1ccc(OC)cc1 (stereo not drawn) [Example 144, trans,trans-1-(N-Methyl-N-propylaminocarbonylmethyl)-2-(4-methoxyphenyl)-4-(3,4-difluorophenyl)pyrrolidine-3-carboxylic acid]
32.4	CCCN(C)C(=O)CN1CC(c2ccccc2)C(C(=O)O)C1c1ccc(OC)cc1 (stereo not drawn) [Example 145, trans,trans-1-(N-Methyl-N-propylaminocarbonylmethyl)-2-(4-methoxyphenyl)-4-(phenyl)pyrrolidine-3-carboxylic acid]
25.0	CCCN(C)C(=O)CN1CC(c2ccc(O)cc2)C(C(=O)O)C1c1ccc(OC)cc1 (stereo not drawn) [Example 146, trans,trans-1-(N-Methyl-N-propylaminocarbonylmethyl)-2-(4-methoxyphenyl)-4-(4-hydroxyphenyl)pyrrolidine-3-carboxylic acid]
73.0	CCCN(C)C(=O)CN1CC(c2ccc(OC)cc2OC)C(C(=O)O)C1c1ccc(OC)cc1 (stereo not drawn) [Example 147, trans,trans-1-(N-Methyl-N-propylaminocarbonylmethyl)-2-(4-methoxyphenyl)-4-(2,4-dimethoxyphenyl)pyrrolidine-3-carboxylic acid]
94.7	CCCCN(CCCC)C(=O)CN1CC(c2ccc3c(c2)CCO3)C(C(=O)O)C1c1ccc(OC)cc1 (stereo not drawn) [Example 148, trans,trans-1-(N,N-Di(n-butyl)aminocarbonylmethyl)-2-(4-methoxyphenyl)-4-(5-benzo-2,3-dihydrofuranyl)pyrrolidine-3-carboxylic acid]
84.6	CCCCN(CCCC)C(=O)CN1CC(c2ccc(OC)cc2)C(C(=O)O)C1c1ccc(OC)cc1 (stereo not drawn) [Example 149, trans,trans-1-(N,N-Di(n-butyl)aminocarbonylmethyl)-2-(4-methoxyphenyl)-4-(4-methoxyphenyl)pyrrolidine-3-carboxylic acid]
93.6	CCCCN(CCCC)C(=O)CN1CC(c2ccc(F)c(F)c2)C(C(=O)O)C1c1ccc(OC)cc1 (stereo not drawn) [Example 150, trans,trans-1-(N,N-Di(n-butyl)aminocarbonylmethyl)-2-(4-methoxyphenyl)-4-(3,4-difluorophenyl)pyrrolidine-3-carboxylic acid]
80.5	CCCCN(CCCC)C(=O)CN1CC(c2ccc(OC)cc2OC)C(C(=O)O)C1c1ccc(OC)cc1 (stereo not drawn) [Example 151, trans,trans-1-(N,N-Di(n-butyl)aminocarbonylmethyl)-2-(4-methoxyphenyl)-4-(2,4-dimethoxyphenyl)pyrrolidine-3-carboxylic acid]
86.9	CCCCN(CCCC)C(=O)CN1CC(c2ccc3c(c2)OCO3)C(C(=O)O)C1c1ccccc1 (stereo not drawn) [Example 152, trans,trans-1-(N,N-Di(n-butyl)aminocarbonylmethyl)-2-phenyl-4-(1,3-benzodioxol-5-yl)pyrrolidine-3-carboxylic acid]
97.1	CCCCN(CCCC)C(=O)CN1CC(c2ccc3c(c2)CCO3)C(C(=O)O)C1c1ccccc1 (stereo not drawn) [Example 153, trans,trans-1-(N,N-Di(n-butyl)aminocarbonylmethyl)-2-phenyl-4-(5-benzo-2,3-dihydrofuranyl)pyrrolidine-3-carboxylic acid]
80.2	CCCCN(CCCC)C(=O)CN1CC(c2ccc3c(c2)CCO3)C(C(=O)O)C1c1ccc(C(C)(C)C)cc1 (stereo not drawn) [Example 154, trans,trans-1-(N,N-Di(n-butyl)aminocarbonylmethyl)-2-(4-t-butylphenyl)-4-(5-benzo-2,3-dihydrofuranyl)pyrrolidine-3-carboxylic acid]
92.6	CCCCN(CCCC)C(=O)CN1CC(c2ccc3c(c2)OCO3)C(C(=O)O)C1c1ccoc1 (stereo not drawn) [Example 156, trans,trans-1-(N. N-Di(n-butyl)aminocarbonylmethyl)-2-(3-furyl)-4-(1,3-benzodioxol-5-yl)pyrrolidine-3-carboxylic acid]
83.8	CCCCN(CCCC)C(=O)CN1CC(c2ccc3c(c2)OCO3)C(C(=O)O)C1C(C)C (stereo not drawn) [Example 157, trans,trans-1-(N,N-Di(n-butyl)aminocarbonylmethyl)-2-(isopropyl)-4-(1,3-benzodioxol-5-yl)pyrrolidine-3-carboxylic acid]
91.8	CCCCN(CCCC)C(=O)CN1CC(c2ccc3c(c2)OCO3)C(C(=O)O)C1c1ccc(C(C)(C)C)cc1 (stereo not drawn) [Example 158, trans,trans-1-(N,N-Di(n-butyl)aminocarbonylmethyl)-2-(4-t-butylphenyl)-4-(1,3-benzodioxol-5-yl)pyrrolidine-3-carboxylic acid]
